Measured values: patent EP4729529A1, “PREPARATION OF PEPTIDE INHIBITOR OF INTERLEUKIN-23 RECEPTOR AND USE THEREOF” (Xizang Haisco Pharmaceutical Co., Ltd., priority 2023, dated 2024)
Starred links: 1 amine or outer side, 2 acyl side, 3 side chain; linkers in the order of their positions; H or OH if unused. Positions of bridges follow the written chain, without caps; N, C: chain ends. Non-standard residues stand in square brackets, D forms with d. Residues, ends and D or L forms follow the SMILES beside them. Groups on a side chain read outwards from the residue. *: point of attachment. Phe(4-OC2H4NH2,2,3-(CH2)3) = NCCOc1ccc(C[C@H](N)C(=O)O)c2c1CCC2; Trp(7-cPr) = N[C@@H](Cc1c[nH]c2c(C3CC3)cccc12)C(=O)O; Trp(7-Me) = Cc1cccc2c(C[C@H](N)C(=O)O)c[nH]c12; C18 diacid = O=C(O)CCCCCCCCCCCCCCCCC(=O)*; γGlu = O=C(O)[C@H](CCC(=O)[*:2])N[*:1]; 2Nal = N[C@@H](Cc1ccc2ccccc2c1)C(=O)O; TBMB = c1c(C[*:1])cc(C[*:3])cc1C[*:2]; X1 = O=C(C(N[*:1])C1(S[*:3])CC1)[*:2]; X3 = C(c1nc(C[*:2])nc(C[*:3])n1)[*:1]; Thp(SO2) = NC1(C(=O)O)CCS(=O)(=O)CC1; mXylylene = c1cc(C[*:1])cc(C[*:2])c1; oXylylene = c1ccc(C[*:2])c(C[*:1])c1; AEF = NCCOc1ccc(C[C@H](N)C(=O)O)cc1; 3Pal = N[C@@H](Cc1cccnc1)C(=O)O; X5 = COCCOCCOCCOCCOCCOCC(=O)*; Pen = CC(C)(S)[C@H](N)C(=O)O; Thp = NC1(C(=O)O)CCOCC1; Dap = NC[C@H](N)C(=O)O; AEEA = NCCOCCOCC(=O)O; CO = O=C([*:1])[*:2]; Sar = CNCC(=O)O

Molecular target: T1, IL-23α/IL-12β and IL-23R (Homo sapiens, UniProt Q5VWK5)
T1 construct: purchased ACRO ILR-H82F3 (IL-23R); ILB-H52W5 (IL-23α/IL-12β)
T1 sequence (Q5VWK5 24-353 limits assumed): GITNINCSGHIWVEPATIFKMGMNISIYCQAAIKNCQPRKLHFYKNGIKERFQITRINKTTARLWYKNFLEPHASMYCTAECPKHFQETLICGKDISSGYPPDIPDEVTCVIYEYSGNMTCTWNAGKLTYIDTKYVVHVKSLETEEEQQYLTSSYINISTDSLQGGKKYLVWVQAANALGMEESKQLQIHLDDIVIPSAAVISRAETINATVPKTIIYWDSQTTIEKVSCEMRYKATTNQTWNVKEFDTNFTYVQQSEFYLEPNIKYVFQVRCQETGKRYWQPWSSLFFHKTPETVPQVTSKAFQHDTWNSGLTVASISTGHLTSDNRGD
Experiment: IL-23α/IL-12β and IL-23R binding assay (TR-FRET/HTRF)
Settings: inhibition of the binding of IL-23α/IL-12β to IL-23R, TR-FRET; both proteins 0.3 nM
Procedure: 1. IL-23α/IL-12β and IL-23R binding assay
Compounds were tested for their inhibition on the binding of IL-23α/IL-12β to IL-23R by the TR-FRET method. Solutions of proteins IL-23α/IL-12β (ACRO, Cat# ILB-H52W5) and IL-23R (ACRO, Cat# ILR-H82F3) were prepared in reaction buffer PPI (PerkinElmer, Cat# 61DB10RDF). The final concentrations of IL-23α/IL-12β and IL-23R in the reaction mixture were both 0.3 nM. Positive reference Guselkumab was 3-fold diluted from an initial concentration of 30 nM, with 10 doses. 0.1 µL of the positive reference diluted in the reaction buffer was delivered to a 384-well plate (Grenier, Cat# 784075) by the acoustic liquid delivery technique (Echo 655), and the plate was centrifuged at 1000 rpm for 1 minute. 2.5 µL of IL-23α/IL-12β solution was transferred into the 384-well reaction plate, and the plate was centrifuged at 1000 rpm for 1 minute, and incubated at 25°C for 60 minutes. 2.5 µL of IL-23R solution was transferred into the 384-well reaction plate, and the plate was centrifuged at 1000 rpm for 1 minute. 5 µL of Streptavidin-Tb cryptate and Anti 6HIS-d2 detection mixture was transferred into the 384-well reaction plate, and the plate was centrifuged at 1000 rpm for 1 minute, and incubated at 25°C for 60 minutes. Finally, the HTRF signal (Ratio 665/620 nm) was read with a BMG high-throughput drug screening multifunctional microplate reader. IC50 values were obtained by nonlinear regression curve fitting using GraphPad Prism software.

Structure (SMILES)	IC50 [nM]
CC(=O)NCCCC[C@@H]1NC(=O)[C@H](Cc2c[nH]c3c(C)cccc23)NC(=O)[C@H]([C@@H](C)O)NC(=O)[C@H](CC(N)=O)NC(=O)C(NC(C)=O)CCCC[C@@H](C(=O)N[C@@H](Cc2ccc(OCCN)cc2)C(=O)N[C@@H](Cc2ccc3ccccc3c2)C(=O)NC2(C(=O)N[C@@H](CCC(=O)O)C(=O)N[C@@H](CC(N)=O)C(=O)N[C@@H](Cc3cccnc3)C(=O)N(C)CC(N)=O)CCOCC2)NC1=O (single isomer, unassigned) [Compound 44-1]	0.145
CC(=O)NCCCC[C@@H]1NC(=O)[C@H](Cc2c[nH]c3c(C)cccc23)NC(=O)[C@H]([C@@H](C)O)NC(=O)[C@H](CC(N)=O)NC(=O)C(NC(C)=O)CCCC[C@@H](C(=O)N[C@@H](Cc2ccc(OCCN)cc2)C(=O)N[C@@H](Cc2ccc3ccccc3c2)C(=O)NC2(C(=O)N[C@@H](CCC(=O)O)C(=O)N[C@@H](CC(N)=O)C(=O)N[C@@H](Cc3cccnc3)C(=O)N(C)CC(N)=O)CCOCC2)NC1=O (single isomer, unassigned) [Compound 44-2]	0.134
CC(=O)N[C@H]1CSCc2cc3cc(c2)CSC[C@@H](C(=O)N[C@@H](CC(N)=O)C(=O)N[C@@H](Cc2cccnc2)C(=O)N(C)CC(N)=O)NC(=O)C2(CCS(=O)(=O)CC2)NC(=O)[C@H](Cc2ccc4ccccc4c2)NC(=O)[C@H](Cc2ccc(OCCN)c4c2CCC4)NC(=O)[C@H](CSC3)NC(=O)[C@H](CCC(N)=O)NC(=O)[C@H](Cc2c[nH]c3c(C)cccc23)NC(=O)[C@H]([C@@H](C)O)NC(=O)[C@H](Cc2c[nH]cn2)NC1=O [Compound 19] (Ac-CHT[Trp(7-Me)]QC[Phe(4-OC2H4NH2,2,3-(CH2)3)][2Nal][Thp(SO2)]CN[3Pal][Sar]-NH2; linker 1-6-10 via TBMB)	0.248
C[C@@H](O)[C@@H]1NC(=O)[C@H](Cc2c[nH]cn2)NC(=O)[C@@H](NC(=O)COCCOCCNC(=O)COCCOCCNC(=O)CC[C@H](NC(=O)CCCCCCCCCCCCCCCCC(=O)O)C(=O)O)C(C)(C)SSC(C)(C)[C@@H](C(=O)N[C@@H](Cc2ccc(OCCN)c3c2CCC3)C(=O)N[C@@H](Cc2ccc3ccccc3c2)C(=O)NC2(C(=O)N[C@@H](CCC(=O)O)C(=O)N[C@@H](CC(N)=O)C(=O)N[C@@H](Cc3cccnc3)C(=O)N(C)CC(N)=O)CCS(=O)(=O)CC2)NC(=O)[C@H](CCC(N)=O)NC(=O)[C@H](Cc2c[nH]c3c(C4CC4)cccc23)NC1=O [Compound 20] ({C18 diacid-γGlu-AEEA-AEEA}-[Pen]HT[Trp(7-cPr)]Q[Pen][Phe(4-OC2H4NH2,2,3-(CH2)3)][2Nal][Thp(SO2)]EN[3Pal][Sar]-NH2; disulfide 1-6)	0.116
CC(=O)N[C@@H]1C(=O)N[C@@H](Cc2c[nH]cn2)C(=O)N[C@@H]([C@@H](C)O)C(=O)N[C@@H](Cc2c[nH]c3c(C4CC4)cccc23)C(=O)N[C@@H](CCCCNC(=O)COCCOCCNC(=O)COCCOCCNC(=O)CC[C@H](NC(=O)CCCCCCCCCCCCCCCCC(=O)O)C(=O)O)C(=O)N[C@H](C(=O)N[C@@H](Cc2ccc(OCCN)c3c2CCC3)C(=O)N[C@@H](Cc2ccc3ccccc3c2)C(=O)NC2(C(=O)N[C@@H](CCC(=O)O)C(=O)N[C@@H](CC(N)=O)C(=O)N[C@@H](Cc3cccnc3)C(=O)N(C)CC(N)=O)CCS(=O)(=O)CC2)C(C)(C)SSC1(C)C [Compound 21] (Ac-[Pen]HT[Trp(7-cPr)]K([AEEA-AEEA-γGlu-C18 diacid])[Pen][Phe(4-OC2H4NH2,2,3-(CH2)3)][2Nal][Thp(SO2)]EN[3Pal][Sar]-NH2; disulfide 1-6)	0.248
CC(=O)N[C@H]1CNC(=O)NC[C@@H](C(=O)N[C@@H](Cc2ccc(OCCN)cc2)C(=O)N[C@@H](Cc2ccc3ccccc3c2)C(=O)NC2(C(=O)N[C@@H](CCC(=O)O)C(=O)N[C@@H](CC(N)=O)C(=O)N[C@@H](Cc3cccnc3)C(=O)N(C)CC(N)=O)CCOCC2)NC(=O)[C@H](CCC(N)=O)NC(=O)[C@H](Cc2c[nH]c3c(C)cccc23)NC(=O)[C@H]([C@@H](C)O)NC(=O)[C@H](Cc2c[nH]cn2)NC1=O [Compound 23] (Ac-[Dap]HT[Trp(7-Me)]Q[Dap][AEF][2Nal][Thp]EN[3Pal][Sar]-NH2; linker 1-6 via CO)	0.161
CC(=O)N[C@H]1CSCc2cccc(c2)CSC[C@@H](C(=O)N[C@@H](Cc2ccc(OCCN)c3c2CCC3)C(=O)N[C@@H](Cc2ccc3ccccc3c2)C(=O)NC2(C(=O)N[C@@H](CCC(=O)O)C(=O)N[C@@H](CC(N)=O)C(=O)N[C@@H](Cc3cccnc3)C(=O)N(C)CC(N)=O)CCS(=O)(=O)CC2)NC(=O)[C@H](CCC(N)=O)NC(=O)[C@H](Cc2c[nH]c3c(C)cccc23)NC(=O)[C@H]([C@@H](C)O)NC(=O)[C@H](Cc2c[nH]cn2)NC1=O [Compound 30] (Ac-CHT[Trp(7-Me)]QC[Phe(4-OC2H4NH2,2,3-(CH2)3)][2Nal][Thp(SO2)]EN[3Pal][Sar]-NH2; linker 1-6 via mXylylene)	0.46
CC(=O)N[C@H]1CSCc2ccccc2CSC[C@@H](C(=O)N[C@@H](Cc2ccc(OCCN)c3c2CCC3)C(=O)N[C@@H](Cc2ccc3ccccc3c2)C(=O)NC2(C(=O)N[C@@H](CCC(=O)O)C(=O)N[C@@H](CC(N)=O)C(=O)N[C@@H](Cc3cccnc3)C(=O)N(C)CC(N)=O)CCS(=O)(=O)CC2)NC(=O)[C@H](CCC(N)=O)NC(=O)[C@H](Cc2c[nH]c3c(C)cccc23)NC(=O)[C@H]([C@@H](C)O)NC(=O)[C@H](Cc2c[nH]cn2)NC1=O [Compound 31] (Ac-CHT[Trp(7-Me)]QC[Phe(4-OC2H4NH2,2,3-(CH2)3)][2Nal][Thp(SO2)]EN[3Pal][Sar]-NH2; linker 1-6 via oXylylene)	0.258
CC(=O)N[C@H]1CSCc2nc3nc(n2)CSC[C@@H](C(=O)N[C@@H](CC(N)=O)C(=O)N[C@@H](Cc2cccnc2)C(=O)N(C)CC(N)=O)NC(=O)C2(CCS(=O)(=O)CC2)NC(=O)[C@H](Cc2ccc4ccccc4c2)NC(=O)[C@H](Cc2ccc(OCCN)c4c2CCC4)NC(=O)[C@H](CSC3)NC(=O)[C@H](CCC(N)=O)NC(=O)[C@H](Cc2c[nH]c3c(C)cccc23)NC(=O)[C@H]([C@@H](C)O)NC(=O)[C@H](Cc2c[nH]cn2)NC1=O [Compound 33] (Ac-CHT[Trp(7-Me)]QC[Phe(4-OC2H4NH2,2,3-(CH2)3)][2Nal][Thp(SO2)]CN[3Pal][Sar]-NH2; linker 1-6-10 via X3)	0.395
COCCOCCOCCOCCOCCOCC(=O)N[C@@H]1C(=O)N[C@@H](Cc2c[nH]cn2)C(=O)N[C@@H]([C@@H](C)O)C(=O)N[C@@H](Cc2c[nH]c3c(C4CC4)cccc23)C(=O)N[C@@H](CCC(N)=O)C(=O)N[C@H](C(=O)N[C@@H](Cc2ccc(OCCN)c3c2CCC3)C(=O)N[C@@H](Cc2ccc3ccccc3c2)C(=O)NC2(C(=O)N[C@@H](CCC(=O)O)C(=O)N[C@@H](CC(N)=O)C(=O)N[C@@H](Cc3cccnc3)C(=O)N(C)CC(N)=O)CCS(=O)(=O)CC2)C(C)(C)SSC1(C)C [Compound 35] (X5-[Pen]HT[Trp(7-cPr)]Q[Pen][Phe(4-OC2H4NH2,2,3-(CH2)3)][2Nal][Thp(SO2)]EN[3Pal][Sar]-NH2; disulfide 1-6)	0.063
CC(=O)N[C@@H](CCC(=O)NCCOCCOCC(=O)NCCOCCOCC(=O)N[C@@H]1C(=O)N[C@@H](Cc2c[nH]cn2)C(=O)N[C@@H]([C@@H](C)O)C(=O)N[C@@H](Cc2c[nH]c3c(C4CC4)cccc23)C(=O)N[C@@H](CCC(N)=O)C(=O)N[C@H](C(=O)N[C@@H](Cc2ccc(OCCN)c3c2CCC3)C(=O)N[C@@H](Cc2ccc3ccccc3c2)C(=O)NC2(C(=O)N[C@@H](CCC(=O)O)C(=O)N[C@@H](CC(N)=O)C(=O)N[C@@H](Cc3cccnc3)C(=O)N(C)CC(N)=O)CCS(=O)(=O)CC2)C(C)(C)SSC1(C)C)C(=O)O [Compound 36] (Ac-[γGlu][AEEA][AEEA][Pen]HT[Trp(7-cPr)]Q[Pen][Phe(4-OC2H4NH2,2,3-(CH2)3)][2Nal][Thp(SO2)]EN[3Pal][Sar]-NH2; disulfide 4-9)	0.042
CC(=O)NCCCC[C@@H]1NC(=O)[C@H](Cc2c[nH]c3c(C)cccc23)NC(=O)[C@H]([C@@H](C)O)NC(=O)[C@H](CC(N)=O)NC(=O)C(NC(C)=O)C2(CC2)SSC(C)(C)[C@@H](C(=O)N[C@@H](Cc2ccc(OCCN)cc2)C(=O)N[C@@H](Cc2ccc3ccccc3c2)C(=O)NC2(C(=O)N[C@@H](CCC(=O)O)C(=O)N[C@@H](CC(N)=O)C(=O)N[C@@H](Cc3cccnc3)C(=O)N(C)CC(N)=O)CCOCC2)NC1=O (stereo partly drawn) [Compound 37] (Ac-[X1]NT[Trp(7-Me)]K(Ac)[Pen][AEF][2Nal][Thp]EN[3Pal][Sar]-NH2; disulfide 1-6 (inferred))	0.05
